The source made the active and inactive calls. The calls are words filed in the database; no cut-off is given here.
Experiments:
NG108-15 [1] = experiment: Intrinsic agonist activity at delta opioid receptor in mouse/rat NG108-15 cells assessed as increase in ERK1/2 phosphorylation at 1 to 50 uM incubated for 20 mins by Western blot method; assay type: cell-based
[2] = molecular target: Delta-type opioid receptor (Mus musculus) (UniProt P32300); experiment: Agonist activity at delta opioid receptor in mouse vas deferens assessed as reduction in electric field stimulation-induced twitch contractions amplitude relative to control
[3] = molecular target: Delta-type opioid receptor (Mus musculus) (UniProt P32300); experiment: Agonist activity at delta opioid receptor in mouse vas deferens assessed as reduction in electric field stimulation-induced twitch contractions amplitude
Mus musculus [4] = species on record: Mus musculus; experiment: Selectivity index, ratio of Ki for kappa opioid receptor in mouse brain membranes to Ki for delta opioid receptor in mouse brain membranes; assay type: cell membranes
Mu-type opioid receptor = Mu-type opioid receptor (Mus musculus, UniProt P42866); experiment: Displacement of [3H]DAMGO from mu opioid receptor in mouse brain membranes by liquid scintillation counting method; assay type: cell membranes, Membrane
[5] = molecular target: Kappa-type opioid receptor (Mus musculus, UniProt P33534); experiment: Displacement of [3H]U-69,593 from kappa opioid receptor in mouse brain membranes by liquid scintillation counting method; assay type: cell membranes, Membrane
Mus musculus [6] = species on record: Mus musculus; experiment: Selectivity index, ratio of Ki for mu opioid receptor in mouse brain membranes to Ki for delta opioid receptor in mouse brain membranes; assay type: cell membranes
[7] = molecular target: Delta-type opioid receptor (Mus musculus) (UniProt P32300); experiment: Agonist activity at delta opioid receptor in mouse vas deferens assessed as reduction in electric field stimulation-induced twitch contractions amplitude in presence of 1 nM natrindole
[8] = molecular target: Delta-type opioid receptor (Mus musculus, UniProt P32300); experiment: Displacement of [3H]DPDPE from delta opioid receptor in mouse brain membranes by liquid scintillation counting method; assay type: cell membranes, Membrane
NG108-15 [9] = experiment: Intrinsic agonist activity at delta opioid receptor in mouse/rat NG108-15 cells assessed as increase in ERK1/2 phosphorylation at 50 nM pre-treated with 500 nM opioid antagonist naloxone for 5 mins followed by compound exposure for 20 mins by Western blot method; assay type: cell-based
NG108-15 [10] = experiment: Intrinsic agonist activity at delta opioid receptor in mouse/rat NG108-15 cells assessed as increase in ERK1/2 phosphorylation At 5 nM pre-treated with 500 nM opioid antagonist naloxone for 5 mins followed by compound exposure for 20 mins by Western blot method; assay type: cell-based
NG108-15 [11] = experiment: Intrinsic agonist activity at delta opioid receptor in mouse/rat NG108-15 cells assessed as increase in ERK1/2 phosphorylation at 0.1 to 5 uM incubated for 20 mins by Western blot method; assay type: cell-based
NG108-15 [12] = experiment: Intrinsic agonist activity at delta opioid receptor in mouse/rat NG108-15 cells assessed as increase in ERK1/2 phosphorylation at 10 nM pre-treated with 500 nM opioid antagonist naloxone for 5 mins followed by compound exposure for 20 mins by Western blot method; assay type: cell-based
NG108-15 [13] = experiment: Toxicity in mouse/rat NG108-15 cells; assay type: cell-based
NG108-15 [14] = experiment: Intrinsic agonist activity at delta opioid receptor in mouse/rat NG108-15 cells assessed as increase in ERK1/2 phosphorylation by Western blot method; assay type: cell-based; conditions: TDE = time-dependent effect
NG108-15 [15] = experiment: Intrinsic agonist activity at delta opioid receptor in mouse/rat NG108-15 cells assessed as increase in ERK1/2 phosphorylation at 0.1 to 100 uM iincubated for 20 mins by Western blot method; assay type: cell-based
NG108-15 [16] = experiment: Intrinsic agonist activity at delta opioid receptor in mouse/rat NG108-15 cells assessed as increase in ERK1/2 phosphorylation At 1 nM pre-treated with 500 nM opioid antagonist naloxone for 5 mins followed by compound exposure for 20 mins by Western blot method; assay type: cell-based

Sequence of Delta-type opioid receptor (P32300 whole entry): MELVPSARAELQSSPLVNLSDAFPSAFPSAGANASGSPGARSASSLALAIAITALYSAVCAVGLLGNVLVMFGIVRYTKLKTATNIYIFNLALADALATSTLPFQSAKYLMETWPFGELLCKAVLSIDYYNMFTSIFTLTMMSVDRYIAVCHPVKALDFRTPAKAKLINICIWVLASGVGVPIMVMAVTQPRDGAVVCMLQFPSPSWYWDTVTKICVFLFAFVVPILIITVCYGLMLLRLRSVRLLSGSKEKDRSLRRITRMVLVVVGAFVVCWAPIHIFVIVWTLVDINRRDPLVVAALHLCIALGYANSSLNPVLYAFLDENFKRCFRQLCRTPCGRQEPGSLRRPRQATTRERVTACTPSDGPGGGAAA
Sequence of Delta-type opioid receptor (Mus musculus) (P32300 whole entry): as above
Sequence of Kappa-type opioid receptor (P33534 whole entry): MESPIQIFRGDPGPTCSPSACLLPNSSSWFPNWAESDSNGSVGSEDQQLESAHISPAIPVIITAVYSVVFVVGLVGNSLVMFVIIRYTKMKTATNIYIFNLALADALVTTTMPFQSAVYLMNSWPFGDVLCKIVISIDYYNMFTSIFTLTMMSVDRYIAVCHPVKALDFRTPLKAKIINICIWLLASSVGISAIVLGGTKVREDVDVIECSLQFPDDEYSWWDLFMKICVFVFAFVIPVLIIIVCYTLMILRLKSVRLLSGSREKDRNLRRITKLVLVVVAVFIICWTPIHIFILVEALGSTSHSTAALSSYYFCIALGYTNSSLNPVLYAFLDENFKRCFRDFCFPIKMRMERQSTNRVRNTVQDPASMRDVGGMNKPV
Sequence of Mu-type opioid receptor (P42866 whole entry): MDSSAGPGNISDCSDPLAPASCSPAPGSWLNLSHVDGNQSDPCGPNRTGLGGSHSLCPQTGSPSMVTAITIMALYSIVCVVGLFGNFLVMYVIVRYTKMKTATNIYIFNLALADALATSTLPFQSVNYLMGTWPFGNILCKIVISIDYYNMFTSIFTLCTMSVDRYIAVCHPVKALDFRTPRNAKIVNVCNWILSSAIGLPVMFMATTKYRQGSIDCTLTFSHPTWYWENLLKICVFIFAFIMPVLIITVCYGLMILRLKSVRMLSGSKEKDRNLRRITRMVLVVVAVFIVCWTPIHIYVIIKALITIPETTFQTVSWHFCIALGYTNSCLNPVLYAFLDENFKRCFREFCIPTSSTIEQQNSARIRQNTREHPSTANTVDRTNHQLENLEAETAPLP

Row | SMILES | Activity (NG108-15 [1]) | Imax [2] [%] | Activity [3] | Ratio Ki (Mus musculus [4]) | Ki (Mu-type opioid receptor) [nM] | Ki [5] [nM] | Ratio Ki (Mus musculus [6]) | Activity [7] | Ki [8] [nM] | Activity (NG108-15 [9]) | Activity (NG108-15 [10]) | Activity (NG108-15 [11]) | Activity (NG108-15 [12]) | Activity (NG108-15 [13]) | Activity (NG108-15 [14]) | Activity (NG108-15 [15]) | Activity (NG108-15 [16])
1 | C=CCN1CC2CC(C1)N2C(c1ccc(C(=O)N(CC)CC)cc1)c1cccc(OC)c1 (racemic) | Active | 90 | Active | 2270 | 1150 | 4000 | 653 | inactive | 1.76 | – | – | – | – | – | – | – | –
2 | C=CCN1C2CCCC1CN(C(c1ccc(C(=O)N(CC)CC)cc1)c1cccc(OC)c1)CC2 (mixture of isomers) | Active | 90 | Active | 467 | 950 | 4250 | 104 | inactive | 9.1 | Active | – | – | – | – | – | – | –
3 | C=CCN1CC2CCCC(C1)N2C(c1ccc(C(=O)N(CC)CC)cc1)c1cccc(OC)c1 (racemic) | Active | – | – | 1170 | 2270 | 2200 | 1210 | – | 1.88 | Active | – | – | – | – | – | – | –
4 | C=CCN1CC2CCC(C1)N2C(c1ccc(C(=O)N(CC)CC)cc1)c1cccc(OC)c1 (racemic) | – | 90 | Active | 882 | 3830 | 300 | 11300 | inactive | 0.34 | – | Active | Active | – | – | – | – | –
5 | C=CCN1C[C@H](C)N([C@H](c2ccc(C(=O)N(CC)CC)cc2)c2cccc(OC)c2)C[C@H]1C [SNC-80] | – | – | Active | – | – | – | – | inactive | – | – | – | – | inactive | Toxic | tde | Dose-dependent effect | –
6 | C=CCN1C2CCC1CN(C(c1ccc(C(=O)N(CC)CC)cc1)c1cccc(OC)c1)CC2 (mixture of isomers) | – | – | – | 1330 | 183 | 2450 | 99.5 | – | 1.84 | – | – | Active | – | – | – | – | Active

Reference: ChEMBL document CHEMBL3603739, “Novel diazabicycloalkane delta opioid agonists” (Bioorg Med Chem, 2015)
